Literature values as cited in patent US5846995A, “Substituted 1, 2, 3, 4-tetrahydro-2-dibenzofuranamines and 2-amino-cyclohepta (6, 7-B) Benzofurans” (priority 1997, dated 1998).

Conditions: background

bioavailability: low bioavailability
Compound: CNS(=O)(=O)Cc1ccc2[nH]cc(CCN(C)C)c2c1.O=C(O)CCC(=O)O [Compound I, 3-[2-(dimethylamino)ethyl]-N-methyl-1H-indole-5-methanesulfonamide butane-1,4-dioate (1:1)]
